Tests used:
Assay in all cases: relative viability (nuclei count vs DMSO), 5 days (fraction); higher = more cells survive
[1] = compound: C=CC(=O)Nc1cc(-n2c(=O)ccc3cnc4ccc(-c5ccc(NS(C)(=O)=O)cc5)cc4c32)ccc1C [BMX-IN-1] + Cc1cc(Nc2cc(N3CCN(C)CC3)nc(Sc3ccc(NC(=O)C4CC4)cc3)n2)n[nH]1 [Tozasertib] (partner 0.1 µM)
Procedure, shortened: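 Lung cancer cell lines were pin-tool dosed in 1536-well plates on the day after seeding, with either a lone drug or a fixed anchor-drug dose plus five library-drug doses (not always all listed) in √10 steps. Nuclei were counted on 4× images after 5 days. Relative viability is the ratio of treated-well to vehicle-well nuclei counts, with each value a median of duplicate plates.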

[2] = compound: C=CC(=O)N1CCC[C@@H](n2nc(-c3ccc(Oc4ccccc4)cc3)c3c(N)ncnc32)C1 [Ibrutinib]
Procedure, shortened: (§1)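 Nuclei counted with MetaXpress define viability as the ratio of treated to vehicle wells, given as a median across plates. The lung cancer cell lines were in 1536-well plates, pinned with five √10-spaced library-drug doses and imaged at 4× after 5 days and Hoechst staining. Plates passed with control CV below 25% and at least one doubling.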

[3] = compound: C=CC(=O)Nc1cc(-n2c(=O)ccc3cnc4ccc(-c5ccc(NS(C)(=O)=O)cc5)cc4c32)ccc1C [BMX-IN-1]
Procedure, shortened: as §1

[4] = compound: C=CCc1cccc(/C=N/NC(=O)CN2CCN(Cc3ccccc3)CC2)c1O [PAC-1]
Procedure, shortened: as §1

Cell Line: SK-MES-1
- relative viability ([1]; first compound 0.02 µM): 1.12
- relative viability ([1]; first compound 0.2 µM): 1.15
- relative viability ([1]; first compound 0.6325 µM): 1.07
- relative viability ([1]; first compound 2 µM): 0.884
- relative viability ([2]; 0.01581 µM): 0.989
- relative viability ([2]; 0.05 µM): 0.888
- relative viability ([2]; 0.1581 µM): 1.02
- relative viability ([2]; 0.5 µM): 0.543
- relative viability ([3]; 0.02 µM): 1.1
- relative viability ([3]; 0.2 µM): 1.1
- relative viability ([3]; 0.6325 µM): 1.11
- relative viability ([3]; 2 µM): 0.998
- relative viability ([4]; 0.02 µM): 0.974
- relative viability ([4]; 0.06325 µM): 0.987
- relative viability ([4]; 0.2 µM): 0.94
- relative viability ([4]; 2 µM): 1.02
